Tests used:
BTK [1] = molecular target: T1, BTK (Homo sapiens (Human), UniProt Q06187); experiment: In Vitro PD Assay in Human Whole Blood (pBTK assay); assay type: cell-based; settings: 37° C. for 30 min, 50% inhibition of ECL signal
Summary of the method: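 Heparinized human whole blood was spiked with serially diluted compound (0.1% DMSO final) and held 30 min at 37 °C. Samples were then lysed with protease and phosphatase inhibitors. Total BTK was captured and phosphotyrosine detected, with DMSO-only lysates ± phosphatase inhibitors serving as high and low controls.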

BTK [2] = molecular target: T1, BTK; experiment: In Vitro BTK Kinase Assay: BTK-POLYGAT-LS ASSAY; assay type: biochemical; settings: ATP 10 μM, polyGAT 100 nM, BTK 0.25 nM, 30 minutes
Summary of the method: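 BTK (0.25 nM final) with 10 μM ATP and 100 nM polyGAT in pH 7.5 Tris buffer with MgCl2, DTT, Triton X-100 and casein; compound titrated 4-fold. Reaction 30 min, stopped with EDTA. Phosphorylation detected by TR-FRET with Tb-PY20 antibody after 45 min at room temperature; IC50 reported.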

T1 sequence (Q06187 whole entry): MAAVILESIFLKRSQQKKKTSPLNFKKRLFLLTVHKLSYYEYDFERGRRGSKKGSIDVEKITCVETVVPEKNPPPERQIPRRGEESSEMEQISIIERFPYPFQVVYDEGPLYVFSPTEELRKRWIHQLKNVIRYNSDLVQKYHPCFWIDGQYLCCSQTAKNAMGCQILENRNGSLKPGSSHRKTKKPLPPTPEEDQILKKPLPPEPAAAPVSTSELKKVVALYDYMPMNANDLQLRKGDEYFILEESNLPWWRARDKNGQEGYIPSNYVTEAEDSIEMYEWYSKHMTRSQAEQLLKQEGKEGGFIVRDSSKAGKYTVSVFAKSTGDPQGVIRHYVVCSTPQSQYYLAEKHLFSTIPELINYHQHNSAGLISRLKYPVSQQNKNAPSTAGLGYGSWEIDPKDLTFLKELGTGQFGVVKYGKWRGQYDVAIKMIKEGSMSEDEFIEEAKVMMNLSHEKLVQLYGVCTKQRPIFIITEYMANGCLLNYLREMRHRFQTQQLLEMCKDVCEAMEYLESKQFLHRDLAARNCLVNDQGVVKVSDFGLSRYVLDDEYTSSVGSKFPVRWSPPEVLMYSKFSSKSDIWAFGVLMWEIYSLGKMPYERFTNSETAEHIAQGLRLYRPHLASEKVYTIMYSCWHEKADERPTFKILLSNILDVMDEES

CC(C)(C)c1noc(C(=O)N[C@@H]2CCCCc3cc(-c4ccnc(NC(=O)[C@@H]5C[C@H]5C#N)c4)ccc32)n1 [Compound 51, 3-(tert-butyl)-N-((R)-2-(2-((1R,2R)-2-cyanocyclopropane-1-carboxamido)pyridin-4-yl)-6,7,8,9-tetrahydro-5H-benzo[7]annulen-5-yl)-1,2,4-oxadiazole-5-carboxamide]
IC50 (BTK [1]): 100 to 500 nM | IC50 (BTK [2]): ≤ 1 nM

CC(C)(C)c1noc(C(=O)N[C@@H]2CCCCc3cc(-c4ccnc(NC(=O)[C@@H]5C[C@H]5C(F)(F)F)c4)ccc32)n1 [Compound 52, 3-(tert-butyl)-N-((R)-2-(2-((1R,2R)-2-(trifluoromethyl)cyclo-propane-1-carboxamido)pyridin-4-yl)-6,7,8,9-tetrahydro-5H-benzo[7]annulen-5-yl)-1,2,4-oxadiazole-5-carboxamide]
IC50 (BTK [1]): 500 to 10000 nM | IC50 (BTK [2]): ≤ 1 nM

CC(C)(C)c1nc(C(=O)N[C@H]2CCCOc3cc(-c4ccnc(NC(=O)C5CC5)c4)ccc32)no1 [Compound 53, (S)-5-(tert-butyl)-N-(8-(2-(cyclopropanecarboxamido)pyridin-4-yl)-2,3,4,5-tetrahydrobenzo[b]oxepin-5-yl)-1,2,4-oxadiazole-3-carboxamide]
IC50 (BTK [1]): > 10000 nM | IC50 (BTK [2]): 10 to 1000 nM

CC(C)(C)c1nc(C(=O)N[C@@H]2CCCOc3cc(-c4ccnc(NC(=O)C5CC5)c4)ccc32)no1 [Compound 54, (R)-5-(tert-butyl)-N-(8-(2-(cyclopropanecarboxamido)pyridin-4-yl)-2,3,4,5-tetrahydrobenzo[b]oxepin-5-yl)-1,2,4-oxadiazole-3-carboxamide]
IC50 (BTK [1]): 100 to 500 nM | IC50 (BTK [2]): ≤ 1 nM

CC(C)(C)c1noc(C(=O)NC2CCCOc3cc(-c4ccnc(NC(=O)C5CC5)c4)ccc32)n1 (stereo not drawn) [Compound 55, 3-(tert-butyl)-N-(8-(2-(cyclopropanecarboxamido)pyridin-4-yl)-2,3,4,5-tetrahydrobenzo[b]oxepin-5-yl)-1,2,4-oxadiazole-5-carboxamide]
IC50 (BTK [1]): 500 to 10000 nM | IC50 (BTK [2]): ≤ 1 nM

CC(C)c1cc(-c2ccnc(NC(=O)C3CC3)c2)ccc1CNC(=O)c1noc(C(C)(C)C)n1 [Compound 56, 5-(tert-butyl)-N-(4-(2-(cyclopropanecarboxamido)pyridin-4-yl)-2-isopropylbenzyl)-1,2,4-oxadiazole-3-carboxamide]
IC50 (BTK [1]): > 10000 nM | IC50 (BTK [2]): 1 to 10 nM

Cc1c(CNC(=O)c2noc(C(C)(C)C)n2)ccc(-c2cc(NC(=O)C3CC3)ncc2F)c1F [Compound 57, 5-(tert-butyl)-N-(4-(2-(cyclopropanecarboxamido)-5-fluoropyridin-4-yl)-3-fluoro-2-methylbenzyl)-1,2,4-oxadiazole-3-carboxamide]
IC50 (BTK [1]): 500 to 10000 nM | IC50 (BTK [2]): ≤ 1 nM

CC(C)(C)c1noc(C(=O)N[C@@H]2CCCCc3cc(-c4ccnc(NC(=O)C5CC5(F)F)c4)ccc32)n1 (stereo partly drawn) [Compound 58, 3-(tert-butyl)-N-((5R)-2-(2-(2,2-difluorocyclopropane-1-carboxamido)pyridin-4-yl)-6,7,8,9-tetrahydro-5H-benzo[7]annulen-5-yl)-1,2,4-oxadiazole-5-carboxamide]
IC50 (BTK [1]): 500 to 10000 nM | IC50 (BTK [2]): ≤ 1 nM

CC1(c2nc(C(=O)NCc3ccc(-c4ccnc(NC(=O)C5CC5)c4)c(F)c3Cl)no2)CC1 [Compound 59, N-(2-chloro-4-(2-(cyclopropanecarboxamido)pyridin-4-yl)-3-fluorobenzyl)-5-(1-methylcyclopropyl)-1,2,4-oxadiazole-3-carboxamide]
IC50 (BTK [1]): 500 to 10000 nM | IC50 (BTK [2]): ≤ 1 nM

Cc1c(CNC(=O)c2noc(C(C)(C)C)n2)cc(F)c(-c2ccnc(NC(=O)C3CC3)c2)c1F [Compound 61, 5-(tert-butyl)-N-(4-(2-(cyclopropanecarboxamido)pyridin-4-yl)-3,5-difluoro-2-methylbenzyl)-1,2,4-oxadiazole-3-carboxamide]
IC50 (BTK [1]): 500 to 10000 nM | IC50 (BTK [2]): ≤ 1 nM

CC(C)(C)c1nc(C(=O)NC2CCCOc3cc(-c4ccnc(NC(=O)C5CC5)c4)ccc32)no1 (stereo not drawn) [Compound 65, 5-(tert-butyl)-N-(8-(2-(cyclopropanecarboxamido)pyridin-4-yl)-2,3,4,5-tetrahydrobenzo[b]oxepin-5-yl)-1,2,4-oxadiazole-3-carboxamide]
IC50 (BTK [1]): 100 to 500 nM | IC50 (BTK [2]): ≤ 1 nM

CC(C)(C)c1nc(C(=O)N[C@@H]2CCCCc3cc(-c4ccnc(NC(=O)C5CC5)c4)ccc32)no1 [Compound 67, (R)-5-(tert-butyl)-N-(2-(2-(cyclopropanecarboxamido)pyridin-4-yl)-6,7,8,9-tetrahydro-5H-benzo[7]annulen-5-yl)-1,2,4-oxadiazole-3-carboxamide]
IC50 (BTK [1]): ≤ 100 nM | IC50 (BTK [2]): ≤ 1 nM

CC(C)(C)c1nc(C(=O)N[C@@H]2CCCCc3cc(-c4ccnc(NC(=O)C5CC5)c4)ccc32)co1 [Compound 68, (R)-2-(tert-butyl)-N-(2-(2-(cyclopropanecarboxamido)pyridin-4-yl)-6,7,8,9-tetrahydro-5H-benzo[7]annulen-5-yl)oxazole-4-carboxamide]
IC50 (BTK [1]): 500 to 10000 nM | IC50 (BTK [2]): ≤ 1 nM

CC(C)(C)c1noc(C(=O)NCc2ccc(-c3ccnc(NC(=O)C4CC4)c3)c(F)c2C(F)(F)F)n1 [Compound 69, 3-(tert-butyl)-N-(4-(2-(cyclopropanecarboxamido)pyridin-4-yl)-3-fluoro-2-(trifluoromethyl)benzyl)-1,2,4-oxadiazole-5-carboxamide]
IC50 (BTK [1]): 100 to 500 nM | IC50 (BTK [2]): ≤ 1 nM

C[C@@H](NC(=O)c1nc(C(C)(C)C)no1)c1cc(F)c(-c2ccnc(NC(=O)C3CC3)c2)cc1Cl [Compound 70, (R)-3-(tert-butyl)-N-(1-(2-chloro-4-(2-(cyclopropanecarboxamido)pyridin-4-yl)-5-fluorophenyl)ethyl)-1,2,4-oxadiazole-5-carboxamide]
IC50 (BTK [1]): 500 to 10000 nM | IC50 (BTK [2]): ≤ 1 nM

Cc1c([C@@H](C)NC(=O)c2noc(C(C)(C)C)n2)ccc(-c2ccnc(NC(=O)C3CC3)c2)c1F [Compound 71, (R)-5-(tert-butyl)-N-(1-(4-(2-(cyclopropanecarboxamido)pyridin-4-yl)-3-fluoro-2-methyphenyl)ethyl)-1,2,4-oxadiazole-3-carboxamide]
IC50 (BTK [1]): 500 to 10000 nM | IC50 (BTK [2]): ≤ 1 nM

CC(C)(C)c1nc(C(=O)NCc2ccc(-c3ccnc(NC(=O)C4CC4)c3)cc2C(C)(C)C)no1 [Compound 72]
IC50 (BTK [1]): > 10000 nM | IC50 (BTK [2]): 1 to 10 nM

CCc1cc(-c2ccnc(NC(=O)C3CC3)c2)ccc1CNC(=O)c1noc(C(C)(C)C)n1 [Compound 73, 5-(tert-butyl)-N-(4-(2-(cyclopropanecarboxamido)pyridin-4-yl)-2-ethylbenzyl)-1,2,4-oxadiazole-3-carboxamide]
IC50 (BTK [1]): 500 to 10000 nM | IC50 (BTK [2]): ≤ 1 nM

C[C@@H](NC(=O)c1noc(C(C)(C)C)n1)c1cc(F)c(-c2ccnc(NC(=O)C3CC3)c2)cc1Cl [Compound 76, (R)-5-(tert-butyl)-N-(1-(2-chloro-4-(2-(cyclopropanecarboxamido)pyridin-4-yl)-5-fluorophenyl)ethyl)-1,2,4-oxadiazole-3-carboxamide]
IC50 (BTK [1]): 500 to 10000 nM | IC50 (BTK [2]): ≤ 1 nM

CC(C)(C)c1nc(C(=O)NCc2ccc(-c3ccnc(NC(=O)C4CC4)c3)cc2C2CC2)no1 [Compound 77, 5-(tert-butyl)-N-(4-(2-(cyclopropanecarboxamido)pyridin-4-yl)-2-cyclopropylbenzyl)-1,2,4-oxadiazole-3-carboxamide]
IC50 (BTK [1]): 100 to 500 nM | IC50 (BTK [2]): ≤ 1 nM

C[C@@H](NC(=O)c1noc(C(C)(C)C)n1)c1ccc(-c2ccnc(NC(=O)C3CC3)c2)cc1C(F)(F)F [Compound 78, (R)-5-(tert-butyl)-N-(1-(4-(2-(cyclopropanecarboxamido)pyridin-4-yl)-2-(trifluoromethyl)phenyl)ethyl)-1,2,4-oxadiazole-3-carboxamide]
IC50 (BTK [1]): 100 to 500 nM | IC50 (BTK [2]): ≤ 1 nM

C[C@@H](NC(=O)c1nc(C(C)(C)C)no1)c1ccc(-c2ccnc(NC(=O)C3CC3)c2)cc1C(F)(F)F [Compound 79, (R)-3-(tert-butyl)-N-(1-(4-(2-(cyclopropanecarboxamido)pyridin-4-yl)-2-(trifluoromethyl)phenyl)ethyl)-1,2,4-oxadiazole-5-carboxamide]
IC50 (BTK [1]): 100 to 500 nM | IC50 (BTK [2]): ≤ 1 nM

CC(C)(C)c1noc(C(=O)NCc2ccc(-c3ccnc(NC(=O)C4CC4)c3)cc2OC(F)(F)F)n1 [Compound 80, 3-(tert-butyl)-N-(4-(2-(cyclopropanecarboxamido)pyridin-4-yl)-2-(trifluoromethoxy)benzyl)-1,2,4-oxadiazole-5-carboxamide]
IC50 (BTK [1]): 500 to 10000 nM | IC50 (BTK [2]): ≤ 1 nM

Cc1cc(-c2ccnc(NC(=O)C3CC3)c2)ccc1CNC(=O)c1cnc(C(C)(C)C)s1 [Compound 81, 2-(tert-butyl)-N-(4-(2-(cyclopropanecarboxamido)pyridin-4-yl)-2-methylbenzyl)thiazole-5-carboxamide]
IC50 (BTK [1]): 500 to 10000 nM | IC50 (BTK [2]): 1 to 10 nM

Cc1cc(-c2ccnc(NC(=O)C3(F)CC3)c2)ccc1CNC(=O)c1noc(C(C)(C)C)n1 [Compound 82, 5-(tert-butyl)-N-(4-(2-(1-fluorocyclopropane-1-carboxamido)pyridin-4-yl)-2-methylbenzyl)-1,2,4-oxadiazole-3-carboxamide]
IC50 (BTK [1]): 500 to 10000 nM | IC50 (BTK [2]): 1 to 10 nM

C[C@@H](NC(=O)c1noc(C(C)(C)C)n1)c1ccc(-c2ccnc(NC(=O)C3CC3)c2)cc1OC(F)(F)F [Compound 83, (R)-5-(tert-butyl)-N-(1-(4-(2-(cyclopropanecarboxamido)pyridin-4-yl)-2-(trifluoromethoxy)phenyl)ethyl)-1,2,4-oxadiazole-3-carboxamide]
IC50 (BTK [1]): 500 to 10000 nM | IC50 (BTK [2]): 1 to 10 nM

Cc1c(CNC(=O)c2noc(C(C)(C)C)n2)ccc(-c2ccnc(NC(=O)C3CC3)c2)c1Cl [Compound 84, 5-(tert-butyl)-N-(3-chloro-4-(2-(cyclopropanecarboxamido)pyridin-4-yl)-2-methylbenzyl)-1,2,4-oxadiazole-3-carboxamide]
IC50 (BTK [1]): 100 to 500 nM | IC50 (BTK [2]): ≤ 1 nM
